{"source": "paper PMC4413526", "about": "(AIDS Research and Therapy, 2014)", "key": {"HIV": {"tested_on": "HIV", "conditions": "cited from earlier work"}, "[1]": {"conditions": "HIV-1-infected patients; cited from earlier work"}, "CYP isozymes": {"tested_on": "CYP isozymes", "conditions": "cited from earlier work"}, "[2]": {"test": "Population pharmacokinetics of darunavir (Bayesian feedback analysis)", "conditions": "human, in vivo; for AUC(0-t): read-out: Population pharmacokinetic-derived AUC24h, mean (SD)"}, "wild-type virus": {"tested_on": "wild-type virus", "conditions": "cited from earlier work"}, "[3]": {"test": "Pharmacokinetic substudy (intensive sampling, non-compartmental analysis)", "conditions": "steady state, plasma, substudy n = 60, darunavir 800 mg + cobicistat 150 mg once daily plus N[t]RTIs", "protocol": "The pharmacokinetic substudy included intensive pharmacokinetic sampling over 24 hours and was performed in a subset of patients (target n =48 evaluable) at selected study sites.\nFor the whole study population, sparse blood samples for analysis of study drug plasma concentrations were collected over 24 hours at Weeks 2, 4, 8, 12, 16, 24, 36 and 48. For the pharmacokinetic substudy, plasma samples were collected predose, 1, 2, 3, 3.5, 4, 4.5, 5, 6, 8, 10, 12 and 24 hours post-dose at a visit between Weeks 2 and 8.\nFor the pharmacokinetic substudy, steady-state pharmacokinetic parameters (Cmax, Cmin and AUC24h) were obtained using non-compartmental analysis (WinNonlin® software version 6.2, Pharsight Corporation, Mountain View, CA, USA). The intensive pharmacokinetic substudy data was used to revise an existing 2-compartment population pharmacokinetic model with first-order absorption."}, "[4]": {"tested_on": "HIV-1 protease and reverse transcriptase", "test": "Development of resistance (genotype/phenotype testing, PhenoSense GT)", "conditions": "two patients (one treatment-experienced, one treatment-naïve) receiving emtricitabine"}, "[5]": {"tested_on": "plasma HIV-1 RNA (viral load)", "conditions": "treatment-naïve patients in ARTEMIS, TLOVR, ITT analysis; cited from earlier work"}}, "note": "Where two headings read alike, the source gives them in different places. Marks after values point to notes of the source that are not given here."}
{"molecule": "CC(C)c1nc(CN(C)C(=O)N[C@@H](CCN2CCOCC2)C(=O)N[C@H](CC[C@H](Cc2ccccc2)NC(=O)OCc2cncs2)Cc2ccccc2)cs1", "note": "[Cobicistat, cobicistat]", "values": [{"measurement": "Antiviral activity", "setting": "HIV", "value": "no antiviral activity"}, {"measurement": "AUCtau, historical data", "setting": "[1]", "value": 8.3, "unit": "µg·h/mL"}, {"measurement": "Cmax, historical data", "setting": "[1]", "value": 1100, "unit": "ng/mL"}, {"measurement": "Induction of CYP isozymes", "setting": "CYP isozymes", "value": "does not induce CYP isozymes"}]}
{"molecule": "CC(C)CN(C[C@@H](O)[C@H](Cc1ccccc1)NC(=O)O[C@H]1CO[C@H]2OCC[C@H]21)S(=O)(=O)c1ccc(N)cc1", "note": "[Darunavir, darunavir]", "values": [{"measurement": "AUC(0-t)", "setting": "[2]; 17 treatment-experienced patients, with cobicistat", "value": 120, "unit": "µg·h/mL"}, {"measurement": "concentration at 0 h", "setting": "[2]; 17 treatment-experienced patients, with cobicistat, read-out: Population pharmacokinetic-derived C0h, mean (SD)", "value": 2920, "unit": "ng/mL"}, {"measurement": "AUC(0-t)", "setting": "[2]; 281 treatment-naïve patients, with cobicistat", "value": 101, "unit": "µg·h/mL"}, {"measurement": "concentration at 0 h", "setting": "[2]; 281 treatment-naïve patients, with cobicistat, read-out: Population pharmacokinetic-derived C0h, mean (SD)", "value": 2100, "unit": "ng/mL"}, {"measurement": "AUC(0-t)", "setting": "[2]; Week 48, overall n = 298, with cobicistat", "value": 102, "unit": "µg·h/mL"}, {"measurement": "concentration at 0 h", "setting": "[2]; Week 48, overall n = 298, with cobicistat, read-out: Population pharmacokinetic-derived trough plasma concentration (C0h), mean (SD)", "value": 2150, "unit": "ng/mL"}, {"measurement": "protein-binding adjusted 50% effective concentration", "setting": "wild-type virus", "value": 55, "unit": "ng/mL"}, {"measurement": "Ctau [mean (SD)]", "setting": "[3]", "value": "1311 (969)* ng/ml"}]}
{"molecule": "Nc1nc(=O)n([C@@H]2CS[C@H](CO)O2)cc1F", "note": "[Emtricitabine, emtricitabine]", "values": [{"measurement": "Phenotypic resistance associated with emerging M184V N[t]RTI RAM", "setting": "[4]", "value": "associated with phenotypic resistance"}]}
{"molecule": "Nc1ccn([C@@H]2CS[C@H](CO)O2)c(=O)n1", "note": "[lamivudine]", "values": [{"measurement": "Phenotypic resistance associated with emerging M184V N[t]RTI RAM", "setting": "[4]", "value": "associated with phenotypic resistance"}]}
{"molecule": "darunavir/ritonavir", "values": [{"measurement": "Week 48 virologic response rate", "setting": "[5]", "value": 84, "unit": "%"}]}
